Test results from article PMC11434749, “In Vitro Interaction of Binuclear Copper Complexes with Liver Drug-Metabolizing Cytochromes P450” (Pharmaceuticals, 2024).

Key:
CYP2B6 = target: T1, CYP2B6 (Homo sapiens, UniProt P20813); experiment: Inhibition of CYP2B6 activity (EFC O-deethylation) in human liver microsomes; format: in vitro ADME; details: HLM, EFC 15 µmol·L^−1, preincubation 30 min at 37 °C, Mean ± S.D.
T1 construct: Pooled human liver microsomes were obtained from Biopredic (Rennes, France); tissue Biopredic (Rennes, France); host or cells: pooled human liver microsomes, seventeen donors
T1 sequence (P20813 1-491): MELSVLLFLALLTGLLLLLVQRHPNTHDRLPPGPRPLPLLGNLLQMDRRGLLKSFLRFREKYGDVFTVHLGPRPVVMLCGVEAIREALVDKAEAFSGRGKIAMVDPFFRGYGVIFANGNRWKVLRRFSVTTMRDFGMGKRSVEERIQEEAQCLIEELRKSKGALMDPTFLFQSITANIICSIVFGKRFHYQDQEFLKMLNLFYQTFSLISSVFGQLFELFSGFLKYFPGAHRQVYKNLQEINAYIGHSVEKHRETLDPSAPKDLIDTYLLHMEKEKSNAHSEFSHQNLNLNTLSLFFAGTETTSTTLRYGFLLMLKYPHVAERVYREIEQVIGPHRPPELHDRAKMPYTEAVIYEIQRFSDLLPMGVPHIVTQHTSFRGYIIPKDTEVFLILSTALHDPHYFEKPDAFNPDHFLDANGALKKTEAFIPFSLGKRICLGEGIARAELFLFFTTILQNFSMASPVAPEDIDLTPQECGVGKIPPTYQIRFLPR
Protocol: The following enzyme assays were performed to determine the activities of specific CYP enzymes: CYP1A2, 7-ethoxyresorufin O-deethylation; CYP2A6, coumarin 7-hydroxylation; CYP2B6, 7-ethoxy-4-(trifluoromethyl) coumarin (EFC) O-deethylation; CYP2C8 paclitaxel 6α-hydroxylation; CYP2C9, diclofenac 4′-hydroxylation; CYP2C19, diazepam N-desmethylation; CYP2D6, bufuralol 1′-hydroxylation; CYP2E1, chlorzoxazone 6-hydroxylation; and CYP3A4/5, testosterone 6β-hydroxylation. […]
For the determination of metabolites formed from specific substrates, a Prominence LC-20A HPLC system (Shimadzu, Kyoto, Japan) with UV detection or fluorescence detection was used (see Table 2). […]
Initially, for each enzyme assay, a preliminary experiment was carried out to determine Km and Vmax to obtain the appropriate concentration of the specific substrates for the inhibition experiments (the substrate concentration was chosen in the range corresponding to the value of the Km for each particular reaction). Data were analyzed using the Sigma plot software, as mentioned above, with spectral studies. […] In all cases, the inhibition of individual CYP activities was evaluated by plotting the respective remaining activity against the inhibitor concentration.

CYP2C19 = target: T2, CYP2C19 (Homo sapiens, UniProt P33261); experiment: Inhibition of CYP2C19 activity (diazepam N-desmethylation) in human liver microsomes; format: in vitro ADME; details: HLM, diazepam 150 µmol·L^−1, preincubation 30 min at 37 °C, Mean ± S.D.
T2 construct: Pooled human liver microsomes were obtained from Biopredic (Rennes, France); tissue Biopredic (Rennes, France); host or cells: pooled human liver microsomes, seventeen donors
Protocol: The following enzyme assays were performed to determine the activities of specific CYP enzymes: CYP1A2, 7-ethoxyresorufin O-deethylation; CYP2A6, coumarin 7-hydroxylation; CYP2B6, 7-ethoxy-4-(trifluoromethyl) coumarin (EFC) O-deethylation; CYP2C8 paclitaxel 6α-hydroxylation; CYP2C9, diclofenac 4′-hydroxylation; CYP2C19, diazepam N-desmethylation; CYP2D6, bufuralol 1′-hydroxylation; CYP2E1, chlorzoxazone 6-hydroxylation; and CYP3A4/5, testosterone 6β-hydroxylation.
The incubation mixtures contained 100 mmol·L^−1 potassium phosphate buffer (pH 7.4), an NADPH-generating system (0.8 mmol·L^−1 NADP^+, 5.8 mmol·L^−1 isocitrate, 0.3 unit/mL of isocitrate dehydrogenase, and 8 mmol·L^−1 MgCl2), HLM, and an individual probe substrate.
For the determination of metabolites formed from specific substrates, a Prominence LC-20A HPLC system (Shimadzu, Kyoto, Japan) with UV detection or fluorescence detection was used (see Table 2). As a rule, reversed-phase chromatography was applied with Merck (Darmstadt, Germany) LiChroCART 250 × 4 mm (i.d.) cartridges packed with a LiChrospher RP-18 silica gel (5 µm particle size) with C-18 reversed-phase properties; a 4 × 4 mm (i.d.) guard column was also used. For the composition of the mobile phase in the respective analyses, see the original reference.
Initially, for each enzyme assay, a preliminary experiment was carried out to determine Km and Vmax to obtain the appropriate concentration of the specific substrates for the inhibition experiments (the substrate concentration was chosen in the range corresponding to the value of the Km for each particular reaction). Data were analyzed using the Sigma plot software, as mentioned above, with spectral studies. Inhibition experiments were performed with a concentration range of the tested complexes from 0.78 to 50 µmol·L^−1. The concentration range used here is in accordance with the MIC (see above) and is adequate. The experimental conditions were the same as for the determination of individual CYP activities (Table 2); the assays were performed in duplicates, with individual values differing by less than 20%. Preincubation of the reaction mixtures with the tested complexes for 30 min at 37 °C was carried out in all assays. In all cases, the inhibition of individual CYP activities was evaluated by plotting the respective remaining activity against the inhibitor concentration.

[1] = Stability on recrystallization from water and methanol; format: physicochemical; details: recrystallized from water and from methanol, crystals of the same composition
Protocol: [Cu2(μ-fu)(pmdien)2(H2O)2](ClO4)2 (complex No. 5) and [Cu2(μ-dtdp)(pmdien)2(H2O)2](ClO4)2 (complex No. 6) were prepared according to a published procedure. […] The structure of complex No. 6 was presented by us in [20]. The structure of complex No. 5 was measured again (the structure was previously solved with worse parameters by Mautner), and our new single crystal data were deposited under CCDC 2378750. Tables with crystal data, structure refinement, and selected bond lengths and angles are presented in ESI (Tables S1–S3). The molecular structures are depicted in Figure 1. It can be seen that the binuclear copper complexes differ in the dicarboxylato bridge. The coordination number on copper is five. All the copper centers are coordinated by three nitrogen atoms of tridentate chelating ligand pmdien and two oxygen atoms. One oxygen is from a water molecule, and the second one is from a monodentately bonding carboxylato group. The fumarato bridge contains a double bond, whereas the dithiodipropionato bridge is longer, with two sulfur atoms. Neither the double bond nor the sulfur atoms are involved in coordination with central atoms. Two perchlorate anions in each molecule are not involved in coordination. There are only hydrogen bonds among the oxygen atoms of the perchlorate group and hydrogens of the coordination cation.

T2 sequence (P33261 whole entry): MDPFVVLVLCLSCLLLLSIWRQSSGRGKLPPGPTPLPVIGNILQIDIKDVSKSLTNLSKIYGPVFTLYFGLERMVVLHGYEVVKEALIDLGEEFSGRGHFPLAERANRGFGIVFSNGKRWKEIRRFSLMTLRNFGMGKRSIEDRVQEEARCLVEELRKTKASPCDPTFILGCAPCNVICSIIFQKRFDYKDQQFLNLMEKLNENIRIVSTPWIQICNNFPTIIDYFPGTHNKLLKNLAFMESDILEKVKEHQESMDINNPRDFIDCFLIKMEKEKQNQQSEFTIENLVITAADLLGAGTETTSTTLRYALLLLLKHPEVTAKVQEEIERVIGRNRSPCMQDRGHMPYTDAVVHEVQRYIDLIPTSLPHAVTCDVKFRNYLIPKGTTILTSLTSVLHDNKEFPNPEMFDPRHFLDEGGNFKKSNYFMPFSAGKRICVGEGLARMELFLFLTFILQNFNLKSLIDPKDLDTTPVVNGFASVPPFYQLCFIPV

Compound	IC50 (CYP2B6) [µM]	IC50 (CYP2C19) [µM]	IC50 (CYP2C19; listed as complex No. 5) [µM]	stability of the complex in solvents [1]	IC50 (CYP2C19; listed as complex No. 6) [µM]
CN(C)CCN(C)CCN(C)C.CN(C)CCN(C)CCN(C)C.O.O.O=C([O-])/C=C/C(=O)[O-].[Cu+2].[Cu+2].[O-][Cl+3]([O-])([O-])[O-].[O-][Cl+3]([O-])([O-])[O-] [Complex No. 5, [Cu2(μ-fu)(pmdien)2(H2O)2](ClO4)2]	24.8 ± 0.33	2.53 ± 0.59	~2.5	very good stability	–
CN(C)CCN(C)CCN(C)C.CN(C)CCN(C)CCN(C)C.O.O.O=C([O-])CCSSCCC(=O)[O-].[Cu+2].[Cu+2].[O-][Cl+3]([O-])([O-])[O-].[O-][Cl+3]([O-])([O-])[O-] [Complex No. 6, [Cu2(μ-dtdp)(pmdien)2(H2O)2](ClO4)2]	13.3 ± 0.54	6.43 ± 0.63	–	–	~6.4
